# Measurements as given in ChEMBL document CHEMBL1137843, “N-4-Substituted-benzyl-N'-tert-butylbenzyl thioureas as vanilloid receptor ligands: investigation on the role of methanesulfonamido group in antagonistic activity” (Bioorg Med Chem Lett, 2004).
# Tests used:
# Type in all cases: functional
# [1] = molecular target: T1, Vanilloid receptor (Rattus norvegicus, UniProt Q9ERZ8+Q9WUD2+O35433); assay: In vitro antagonist activity at the vanilloid receptor in rat DRG neurons.
# [2] = molecular target: T1, Vanilloid receptor; assay: In vitro antagonist activity at vanilloid receptor in rat dorsal root ganglia (partial at 30 uM)
# [3] = molecular target: T1, Vanilloid receptor; assay: In vitro agonist activity, increased [Ca2+] influx, at vanilloid receptor of rat dorsal root ganglia
# [4] = molecular target: T1, Vanilloid receptor; assay: In vitro agonist activity, increased [Ca2+] influx, at vanilloid receptor of rat dorsal root ganglia (partial at 30 uM)
SMILES,IC50 [1] [µM],also measured
CC(C)(C)c1ccc(C/N=C(\S)NCc2ccc(NS(=O)(=O)C(F)(F)F)cc2)cc1,12.4,–
CN(c1ccc(C/N=C(\S)NCc2ccc(C(C)(C)C)cc2)cc1)S(C)(=O)=O,2.5,–
CC(C)(C)c1ccc(C/N=C(\S)NCc2ccc(C(F)(F)F)cc2)cc1,12.4,–
CC(C)(C)c1ccc(C/N=C(\S)NCc2ccc([N+](=O)[O-])cc2)cc1,–,IC50 [2]: > 30 µM
COc1cc(C/N=C(\S)NCc2ccc(C(C)(C)C)cc2)ccc1OS(C)(=O)=O,0.3,–
CCS(=O)(=O)Nc1ccc(C/N=C(\S)NCc2ccc(C(C)(C)C)cc2)cc1,1.3,–
CC(C)(C)c1ccc(C/N=C(\S)NCc2ccc(N)cc2)cc1,–,EC50 [3]: 7 µM
CCCCS(=O)(=O)Nc1ccc(C/N=C(\S)NCc2ccc(C(C)(C)C)cc2)cc1,4.1,–
CC(C)(C)c1ccc(C/N=C(\S)NCc2ccc(NS(N)(=O)=O)cc2)cc1,1,–
CC(C)(C)c1ccc(C/N=C(\S)NCc2ccc(OS(C)(=O)=O)cc2)cc1,9.3,–
CC(C)(C)c1ccc(C/N=C(\S)NCc2ccc(NC(=N)S)cc2)cc1,–,IC50 [2]: > 30 µM; EC50 [4]: > 30 µM
CC(C)(C)c1ccc(C/N=C(\S)NCc2ccc(NS(=O)(=O)c3cccs3)cc2)cc1,–,IC50 [2]: > 30 µM
CNS(=O)(=O)Nc1ccc(C/N=C(\S)NCc2ccc(C(C)(C)C)cc2)cc1,2.5,–
CC(C)(C)c1ccc(C/N=C(\S)NCc2ccc(NS(=O)(=O)CC(F)(F)F)cc2)cc1,11.7,–
CC(C)(C)c1ccc(C/N=C(\S)NCc2ccc(O)cc2)cc1,–,EC50 [4]: > 30 µM
CC(C)(C)c1ccc(C/N=C(\S)NCc2ccc(NS(=O)(=O)Cc3ccccc3)cc2)cc1,1.5,–
CN(C)S(=O)(=O)Nc1ccc(C/N=C(\S)NCc2ccc(C(C)(C)C)cc2)cc1,14.6,–
CC(C)S(=O)(=O)Nc1ccc(C/N=C(\S)NCc2ccc(C(C)(C)C)cc2)cc1,3.8,–
CCCS(=O)(=O)Nc1ccc(C/N=C(\S)NCc2ccc(C(C)(C)C)cc2)cc1,4.5,–
Oc1cc2c(cc1O)CN(C(=S)NCCc1ccc(Cl)cc1)CCC2 [CAPSAZEPINE],0.65,–
